In publication PMC6942878 (Analytical biochemistry, 2019) one finds IC50 data, which are given here for 2 compounds.

This test addresses murine double minute 2 (MDM2) (Homo sapiens, UniProt Q00987). In words: biochemical. The class given is binding.

Sequence of murine double minute 2 (MDM2) (Q00987 3-155): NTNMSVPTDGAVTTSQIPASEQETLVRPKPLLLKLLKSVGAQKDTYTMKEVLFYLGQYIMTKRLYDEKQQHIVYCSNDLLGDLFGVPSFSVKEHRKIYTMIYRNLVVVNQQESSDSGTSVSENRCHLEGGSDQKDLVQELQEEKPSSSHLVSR

Broadly, the IC50 is the concentration needed to halve the response being measured. As to `CC(C)COCC(CN(Cc1ccccc1)c1ccccc1)N1CCCC1` (centres unmarked) [bepridil], the IC50 came to 206 nM.

The compound `CN1CCCC(n2nc(Cc3ccc(Cl)cc3)c3ccccc3c2=O)CC1` (centres unmarked) [azelastine] gave a half-maximal inhibitory concentration (IC50) of 367 nM.
